These results are taken from patent US20230414619A1 (priority 2020, published 2023).

Assay [1] concerns PBMCs from a COVID-19 patient. Format: cell-based, human.
For assay [2], the system named is SARS-CoV-2. As to conditions: emetine inhibition of Rps14; pladienolide inhibition of SF3B1; cited from earlier work.

For the molecule `COc1cc2c(NC3CCN(C(C)C)CC3)nc(N3CCC(F)(F)CC3)nc2cc1OCCCN1CCCC1` [UNC0642], in assay [1], the “differentially expressed host factors necessary for SARS-CoV-2 pathogenesis (siRNA and CRISPR screens)” value is 8; the “differentially expressed host interactors of SARS-CoV-2 viral RNA” value is listed as 2; the “differentially expressed host proteins that interact with SARS-CoV-1/2 and MERS encoded proteins” value was 129; the “downregulated proteins following treatment” value is 151. For the same molecule, the “upregulated proteins following treatment” value in assay [1] came to 141. Moreover, the “proteins differentially expressed following treatment” value in assay [1] (of 5566 proteins quantified, ANOVA P value<0.05, 0-24 h treatment) was determined as 292. Besides, the “differentially expressed proteins whose turnover is G9a dependent in ET macrophages” value in assay [1] (out of 292, 78 upregulated, 74 downregulated) is listed as 152.
On to `CC[C@H]1CN2CCc3cc(OC)c(OC)cc3[C@@H]2C[C@@H]1C[C@H]1NCCc2cc(OC)c(OC)cc21` [emetine], for which the SARS-CoV-2 replication result in assay [2] is recorded as “significantly reduced”.
Regarding `CC[C@H](O)[C@@H](C)[C@H]1O[C@@H]1C[C@H](C)/C=C/C=C(\C)[C@H]1OC(=O)C[C@H](O)CC[C@@](C)(O)[C@@H](OC(C)=O)/C=C/[C@@H]1C` [pladienolide], in assay [2], the SARS-CoV-2 replication entry was “significantly reduced”.
